Tests used:
[1] = tested on: RAW 264.7 cells; experiment: Cytotoxicity test, CCK8; format: cell-based, mouse; settings: 162.50, 81.25 and 40.00 μM, 12 h
Protocol: The cell line used in this study was mouse mononuclear macrophage leukemia cell RAW 264.7. The cells were cultured in DMEM complete medium (basal medium containing 10% fetal bovine serum, 100 U/mL penicillin, and […] streptomycin) at 37 °C in a 5% CO2 incubator. When the cells covered 80% of the bottom of the plate, they were passaged more than three times.
Adherent RAW 264.7 cells were digested to detach the cells. Digestion was stopped via the addition of PBS and centrifuging at 1000 rpm for 5 min. The supernatant was discarded, and the cells were resuspended in 1 mL of medium for cell counting. Based on the counting results, the cell suspension was diluted. Then, 100 μL of the diluted cell suspension was added to a 96-well plate, with approximately 1 × 10^4 cells per well. The cells were then placed in the incubator to allow for adherence.
One well without cells received 100 μL of complete medium as a blank control, and one well with cells received 100 μL of complete medium as a negative control. […]
After incubation, the medium was removed, and 100 μL of 10% CCK8 solution was added to each well. The absorbance at 450 nm (OD450) was measured at 0.5 h, 1 h, and 2 h until OD450 = 1.
Cell viability was calculated using the following formula: cell activity = (OD450 compound − OD450 blank)/(OD450 negative control − OD450 blank) x 100%

[2] = tested on: P. aeruginosa PAO1 pyocyanin; experiment: Pyocyanin quantification assay; format: cell-based, Pseudomonas aeruginosa
Protocol: The method used to perform the pyocyanin quantification assay was previously reported. In short, P. aeruginosa PAO1 was cultivated in LB medium to reach the logarithmic growth phase at 37 °C and 150 rpm. Following this, the medium (2% peptone, 1% K2SO4, 0.3% MgCl2) was diluted 10 times. A 5 mL bacterial culture containing and excluding the compound (162.5 μM, 81.25 μM, and 20 μM) was incubated for 16 h at 37 °C at 150 rpm. The culture was centrifuged at 1665 g for 10 min in order to extract pyocyanin. The supernatant was then collected and extracted using 3 mL of chloroform. The upper aqueous phase was then collected via centrifugation at 1665 g for 10 min after 1 mL of 0.2 M HCl was combined with the chloroform layer. Absorbance was measured at 520 nm. The pyocyanin inhibition rate was calculated as follows = (OD520 blank − OD520 sample)/OD520 blank × 100%.

[3] = tested on: P. aeruginosa PAO1; experiment: Growth activity of PAO1 (OD600 growth curve); format: cell-based, Pseudomonas aeruginosa; settings: 162.50, 81.25 and 40.00 μM, OD600 over 24 h
Protocol: 3.2.4. The Growth of the Compound of PAO1 QS Activity Analysis
P. aeruginosa PAO1 in log phase was diluted to OD600 = 0.05 in fresh LB medium. Then, 98 μL of diluted bacterial solution and 2 μL of Y-31 solution were added to the 96-well plate. The final concentration of Y-31 in each well was 162.50 μM, 81.25 μM, and 40.00 μM, respectively. The pores without the compound Y-31 were used as blank controls. The cells were incubated in an incubator at 37 °C for 24 h, and OD600 was measured at 0 h, 2 h, 4 h, 6 h, 8 h, 10 h, 12 h, and 24 h, respectively.

[4] = tested on: P. aeruginosa PAO1 elastase; experiment: Elastase quantification (EnzCheck Elastase Assay Kit); format: cell-based, Pseudomonas aeruginosa
Protocol: The method previously described was used to perform the elastase quantification experiment. In LB medium, P. aeruginosa PAO1 was cultivated until the logarithmic growth phase at 37 °C and 150 rpm. […] Elastase activity was detected using the EnzCheckTM Elastase Assay Kit after filtration with a 0.22 μm filter membrane.

[5] = tested on: C. violaceum CV026 QS; experiment: Half-maximal inhibitory concentration against C. violaceum CV026 QS (suppression of violacein production); format: cell-based; settings: Chromobacterium violaceum; C6-HSL-induced violacein production, 12 h; mean ± SD of three independent tests; read-out: IC50, anti-CV026 QS activity
Source text: In the exploration of the QS inhibitions, C. violaceum CV026, a mini-T5 mutant of C. violaceum ATCC31532, is frequently employed as a biosensor strain. Because C. violaceum CV026 lacks the CviI gene, which directs the synthesis of AHLs, it is unable to manufacture violacein on its own. The violacein reaction can be induced in C. violaceum CV026 by adding exogenous C6-HSL [27]. As a result, the violacein reaction in C. violaceum CV026 can be used to assess the compounds’ suppression of QS, as used in this investigation.
3.2.2. The Half-Maximal Inhibitory Concentration (IC50) of Compounds against C. violaceum CV026 QS [36]
Subsequently, the log phase of C. violaceum CV026 was placed in a 12-well plate (2 mL/well) after being diluted 10-fold with fresh LB medium. The experimental group received 15 μL of the diluted inducer C6-HSL (0.125 mM), and 8 μL of each dilution gradient compound was added to each well, while the positive control group received 8 μL of C10-HSL, and the blank control group received 8 μL of LB medium. The plates were incubated at 30 °C and 130 rpm for 12 h. After centrifuging 1 mL of the culture for 10 min at 11,255 g, the supernatant was discarded. After dissolving the violacein with 500 μL of DMSO, the mixture was centrifuged once more at 11,255 g for 10 min. In order to measure the absorbance at 585 nm, 200 μL of the upper pigment was added to a 96-well plate. The IC50 was calculated using GraphPad Prism 5 according to the formula (absorbance at 585 nm of the test concentration/the absorbance of the control at 585 nm × 100%).

O=C(CCCOc1ccc(I)cc1)NN1CCCOC1=O [Y-31]
Cytotoxicity towards RAW 264.7 cells (cell viability) [1]: did not exhibit significant cytotoxicity
Inhibition rate of pyocyanin ([2]; 162.5 μM): 22.5%
inhibition at 40 µM ([2]; Pseudomonas aeruginosa, PAO1, read-out: Inhibition rate of pyocyanin, 40 μM): 10%
inhibition at 81.5 µM ([2]; Pseudomonas aeruginosa, PAO1, read-out: Inhibition rate of pyocyanin, 81.5 μM): 17.1%
inhibition at 162.5 µM ([2]; Pseudomonas aeruginosa, PAO1, read-out: Inhibition rate of pyocyanin, 162.5 μM): 22.5%
Inhibition of the growth activity of PAO1 [3]: no significant inhibition
Inhibition rate of elastase ([4]; 162.5 μM): 22.7%
inhibition at 40 µM ([4]; Pseudomonas aeruginosa, PAO1, read-out: Inhibition rate of elastase, 40 μM): 11.3%
inhibition at 81.5 µM ([4]; Pseudomonas aeruginosa, PAO1, read-out: Inhibition rate of elastase, 81.5 μM): 20%
inhibition at 162.5 µM ([4]; Pseudomonas aeruginosa, PAO1, read-out: Inhibition rate of elastase, 162.5 μM): 22.7%
IC50 [5]: 91.5 ± 3.35 µM
